Consider 13 molecules from patent publication US20080026996A1, “Selective Vpac2 Receptor Reptide Agonists” (ELI LILLY AND COMPANY, priority 2004, published 2008).

Data set [1] can be described thus: Rat serum stability studies (remaining active peptide by DiscoveRx cAMP on CHO-VPAC2 cells). Format: in vitro ADME. A digest of the protocol: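 EC50 from a DiscoveRx cAMP read-out on CHO-VPAC2 cells indexes how much peptide stays active after 18 h in rat serum at 37° C without aprotinin, against an aprotinin-protected 4° C aliquot.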
Another data set addresses T1, human VPAC1 (Homo sapiens, UniProt P32241).
T1 sequence (P32241 31-457): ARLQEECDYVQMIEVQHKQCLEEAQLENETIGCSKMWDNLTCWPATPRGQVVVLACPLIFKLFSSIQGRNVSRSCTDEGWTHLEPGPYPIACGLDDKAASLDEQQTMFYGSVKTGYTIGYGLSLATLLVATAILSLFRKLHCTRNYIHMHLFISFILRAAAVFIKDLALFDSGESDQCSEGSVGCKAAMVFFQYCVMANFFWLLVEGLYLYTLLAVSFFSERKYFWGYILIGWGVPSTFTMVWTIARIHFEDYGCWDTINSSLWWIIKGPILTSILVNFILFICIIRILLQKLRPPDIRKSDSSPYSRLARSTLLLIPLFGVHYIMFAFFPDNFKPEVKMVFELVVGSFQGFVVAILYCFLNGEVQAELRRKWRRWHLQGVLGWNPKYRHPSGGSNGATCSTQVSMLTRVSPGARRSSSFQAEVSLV
Put plainly: Filter binding assay, membranes of cells transiently transfected with human VPAC1, 125I-labeled VIP tracer (Table 2). Also noted: expressed in transfected cells. To be noted: read-out: Human VPAC1 Receptor Binding. In short, it runs like this:
(§1)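 Radioligand displacement was measured with 2.5 μg membrane protein per well and roughly 40000 cpm of iodinated tracer. After a 1-hour incubation, bound and free label were separated on BSA-blocked glass-fibre filters and quantified by scintillation.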

For data set [2], the target named is T2, human VPAC2 (Homo sapiens, UniProt P41587).
T2 construct: expressed in transfected cells
T2 sequence (P41587 24-438): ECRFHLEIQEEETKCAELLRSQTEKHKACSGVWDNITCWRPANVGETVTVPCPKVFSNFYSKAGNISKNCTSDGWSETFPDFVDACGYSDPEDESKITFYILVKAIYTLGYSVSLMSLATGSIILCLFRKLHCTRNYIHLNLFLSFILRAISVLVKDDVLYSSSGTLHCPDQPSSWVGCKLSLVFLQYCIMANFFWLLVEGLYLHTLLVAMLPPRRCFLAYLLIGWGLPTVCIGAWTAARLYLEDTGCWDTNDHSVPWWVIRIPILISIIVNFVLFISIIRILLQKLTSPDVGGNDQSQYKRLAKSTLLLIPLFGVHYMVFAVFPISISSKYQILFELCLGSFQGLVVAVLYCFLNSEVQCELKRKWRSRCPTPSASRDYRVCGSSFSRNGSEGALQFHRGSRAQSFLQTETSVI
Put plainly: Alpha screen cAMP in vitro potency, human VPAC2 receptor. It is filed as cell-based. To be noted: cAMP generation; single result from two analyses performed in a single run; read-out: Human VPAC2 Receptor: Alpha Screen EC50. A digest of the protocol: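 Under reduced light, acceptor beads accompany the stimuli during a 60-minute incubation of cells in stimulation buffer (50,000 per well point). Donor beads go in with lysis buffer for a further 60–120 minutes, and the resulting AlphaScreen signal indicates cAMP levels.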

Data set [3] concerns the target T2, human VPAC2. The data set can be described thus: Filter binding assay, membranes of stable VPAC2 cell line, 125I-labeled VIP tracer (Table 2). To be noted: read-out: Human VPAC2 Receptor Binding. A digest of the protocol:
as §1

The target in another data set is T3, human PAC1 (Homo sapiens, UniProt P41586).
T3 sequence (P41586 21-468): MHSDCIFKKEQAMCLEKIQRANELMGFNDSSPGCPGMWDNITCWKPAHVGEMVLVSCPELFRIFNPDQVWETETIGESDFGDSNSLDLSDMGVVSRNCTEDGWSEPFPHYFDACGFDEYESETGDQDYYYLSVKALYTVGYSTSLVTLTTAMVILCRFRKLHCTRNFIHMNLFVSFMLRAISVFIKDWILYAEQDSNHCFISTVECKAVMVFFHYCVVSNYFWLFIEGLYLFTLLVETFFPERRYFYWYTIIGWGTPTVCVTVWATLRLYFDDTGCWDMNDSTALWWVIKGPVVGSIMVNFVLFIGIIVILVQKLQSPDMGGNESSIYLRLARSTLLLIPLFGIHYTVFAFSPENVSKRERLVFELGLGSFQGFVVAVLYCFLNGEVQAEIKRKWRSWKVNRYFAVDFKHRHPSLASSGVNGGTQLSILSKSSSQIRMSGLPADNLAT
The data set can be described thus: Filter binding assay, membranes of cells transiently transfected with human PAC1, 125I-labeled PACAP-27 tracer (Table 2). Also noted: expressed in transfected cells. As to conditions: read-out: Human PAC1 Receptor Binding. A digest of the protocol: as §1

Where a SMILES comes first, the peptide text is derived from it. Where no end group is shown, it is not given here. [ ]: non-standard residue; d: D form. The star is where a group is joined. Hexanoyl = CCCCCC(=O)*; Aib = CC(C)(N)C(=O)O

What is called EC50 is the concentration giving half of the maximal effect. Consider `CCCCCC(=O)N[C@@H](Cc1c[nH]cn1)C(=O)N[C@@H](CO)C(=O)N[C@@H](CC(=O)O)C(=O)N[C@@H](C)C(=O)N[C@H](C(=O)N[C@@H](Cc1ccccc1)C(=O)N[C@H](C(=O)N[C@@H](CC(=O)O)C(=O)N[C@@H](CCC(N)=O)C(=O)N[C@@H](Cc1ccc(O)cc1)C(=O)N[C@H](C(=O)N[C@@H](CCCNC(=N)N)C(=O)N[C@@H](CC(C)C)C(=O)N[C@@H](CCCNC(=N)N)C(=O)N[C@@H](CCCNC(=N)N)C(=O)N[C@@H](CCC(N)=O)C(=O)N[C@H](C(=O)N[C@@H](C)C(=O)N[C@@H](C)C(=O)N[C@@H](CCCNC(=N)N)C(=O)N[C@@H](CCCCN)C(=O)N[C@@H](Cc1ccc(O)cc1)C(=O)N[C@@H](CC(C)C)C(=O)N[C@@H](CCC(N)=O)C(=O)N[C@@H](CO)C(=O)N[C@H](C(=O)N[C@@H](CCCNC(=N)N)C(=O)N[C@@H](CCC(N)=O)C(=O)NCC(=O)NCC(=O)N1CCC[C@H]1C(=O)N[C@@H](CO)C(=O)N[C@@H](CO)C(=O)NCC(=O)N[C@@H](C)C(=O)N1CCC[C@H]1C(=O)N1CCC[C@H]1C(=O)N1CCC[C@H]1C(=O)N[C@@H](CO)C(=O)O)[C@@H](C)CC)C(C)C)[C@@H](C)O)[C@@H](C)O)C(C)C` [Agonist P220] (Hexanoyl-HSDAVFTDQYTRLRRQVAARKYLQSIRQGGPSSGAPPPS-OH; C-terminus assumed), for which the “Rat Serum Stability (estimated purity in % after 18 hours)” value in data set [1] is reported as 0.08%. Also, the IC50 on human VPAC1 is 5.86 nM; on human VPAC2 [3] it was 0.25 nM; on human PAC1 it was 849 nM. Further, the EC50 at human VPAC2 [2] came to 0.12 nM.
With `CCCCCC(=O)N[C@@H](Cc1c[nH]cn1)C(=O)N[C@@H](CO)C(=O)N[C@@H](CC(=O)O)C(=O)N[C@@H](C)C(=O)N[C@H](C(=O)N[C@@H](Cc1ccccc1)C(=O)N[C@H](C(=O)N[C@@H](CC(=O)O)C(=O)N[C@@H](CC(N)=O)C(=O)N[C@@H](Cc1ccc(O)cc1)C(=O)N[C@H](C(=O)N[C@@H](CCCNC(=N)N)C(=O)N[C@@H](CC(C)C)C(=O)NC(C)(C)C(=O)N[C@@H](CCCCN)C(=O)N[C@@H](CCC(N)=O)C(=O)N[C@H](C(=O)N[C@@H](C)C(=O)N[C@@H](C)C(=O)NC(C)(C)C(=O)N[C@@H](CCCCN)C(=O)N[C@@H](Cc1ccc(O)cc1)C(=O)N[C@@H](CC(C)C)C(=O)N[C@@H](CCC(N)=O)C(=O)N[C@@H](CO)C(=O)N[C@H](C(=O)N[C@@H](CCCCN)C(=O)N[C@@H](CCC(N)=O)C(=O)N[C@@H](CCCCN)C(=O)NCC(=O)NCC(=O)N1CCC[C@H]1C(=O)N[C@@H](CO)C(=O)N[C@@H](CO)C(=O)NCC(=O)N[C@@H](C)C(=O)N1CCC[C@H]1C(=O)N1CCC[C@H]1C(=O)N1CCC[C@H]1C(=O)N[C@@H](CO)C(=O)O)[C@@H](C)CC)C(C)C)[C@@H](C)O)[C@@H](C)O)C(C)C` [Agonist P293] (Hexanoyl-HSDAVFTDNYTRL[Aib]KQVAA[Aib]KYLQSIKQKGGPSSGAPPPS-OH; C-terminus assumed), the “Rat Serum Stability (estimated purity in % after 18 hours)” value in data set [1] is reported as 32.70%. In addition, the IC50 is more than 3000 nM at human VPAC1, 16.7 nM on human VPAC2 [3] and more than 25000 nM on human PAC1.
Turning to `CCCCCC(=O)N[C@@H](Cc1c[nH]cn1)C(=O)N[C@@H](CO)C(=O)N[C@@H](CC(=O)O)C(=O)N[C@@H](C)C(=O)N[C@H](C(=O)N[C@@H](Cc1ccccc1)C(=O)N[C@H](C(=O)N[C@@H](CC(=O)O)C(=O)N[C@@H](CC(N)=O)C(=O)N[C@@H](Cc1ccc(O)cc1)C(=O)N[C@H](C(=O)N[C@@H](CCCNC(=N)N)C(=O)N[C@@H](CC(C)C)C(=O)NC(C)(C)C(=O)N[C@@H](CCCCN)C(=O)N[C@@H](CCC(N)=O)C(=O)N[C@H](C(=O)N[C@@H](C)C(=O)N[C@@H](C)C(=O)NC(C)(C)C(=O)N[C@@H](CCCCN)C(=O)N[C@@H](Cc1ccc(O)cc1)C(=O)N[C@@H](CC(C)C)C(=O)N[C@@H](CCC(N)=O)C(=O)N[C@@H](CO)C(=O)N[C@H](C(=O)N[C@@H](CCCCN)C(=O)N[C@@H](CCC(N)=O)C(=O)NCC(=O)NCC(=O)N1CCC[C@H]1C(=O)N[C@@H](CO)C(=O)N[C@@H](CO)C(=O)NCC(=O)N[C@@H](C)C(=O)N1CCC[C@H]1C(=O)N1CCC[C@H]1C(=O)N1CCC[C@H]1C(=O)N[C@@H](CO)C(=O)O)[C@@H](C)CC)C(C)C)[C@@H](C)O)[C@@H](C)O)C(C)C` [Agonist P296] (Hexanoyl-HSDAVFTDNYTRL[Aib]KQVAA[Aib]KYLQSIKQGGPSSGAPPPS-OH; C-terminus assumed), the “Rat Serum Stability (estimated purity in % after 18 hours)” value in data set [1] is 42.26%. The values for the IC50 at human VPAC1, at human VPAC2 [3] and on human PAC1 were more than 3000 nM, more than 100 nM and more than 25000 nM, respectively.
The corresponding values for “Hexanoyl-HSDAVFTDNYTRLA[Aib]QVAA[Aib]KYLQSIKNKRYGGPSSGAPPPS [Agonist P301]” are 6.86%, more than 3000 nM, 7.27 nM and more than 25000 nM.
The corresponding values for “Hexanoyl-HSDAVFTDNYTRLRFQVAAKKYLQSIKNKRYGGPSSGAPPPS [Agonist P180]” are 1.14%, more than 3000 nM, 5.63 nM and 589 nM.
“Hexanoyl-HSDAVFTDNYTRLRKQVAAKKILQSIKNKRYGGPSSGAPPPS [Agonist P133]”: in data set [1], the “Rat Serum Stability (estimated purity in % after 18 hours)” value is reported as less than 2.00%. Besides, the IC50 on human VPAC1 is 470 nM; on human VPAC2 [3], 5.3 nM; on human PAC1 it was 1940 nM.
Consider “Hexanoyl-HSDAVFTDNYTRLRKQVAAKKYLQSIKNKRYGGPSSGAPPPC [Agonist P120]”, for which, in data set [1], the “Rat Serum Stability (estimated purity in % after 18 hours)” value was 5%. The EC50 on human VPAC2 [2] was found to be 0.06 nM. Also, the IC50 was 0.44 nM on human VPAC2 [3] and 577 nM at human PAC1.
Consider “Hexanoyl-HSDAVFTDNYTRL[Aib]KQLAAK[Aib]YLQSIKNKRYGGPSSGAPPPS [Agonist P241]”, for which, in data set [1], the “Rat Serum Stability (estimated purity in % after 18 hours)” value is given as 62.55%. The values for the IC50 at human VPAC1, at human VPAC2 [3] and on human PAC1 were more than 3000 nM, 18.1 nM and more than 25000 nM, respectively.
“Hexanoyl-HSDAVFTDNYTRL[Aib]KQVAAAKYLQSIKNKRYGGPSSGAPPPS [Agonist P260]”: the “Rat Serum Stability (estimated purity in % after 18 hours)” value in data set [1] was 28.57%. Also, the IC50 is 3320 nM on human VPAC1, 4.79 nM on human VPAC2 [3] and more than 3000 nM at human PAC1.
Regarding “Hexanoyl-HSDAVFTDNYTRL[Aib]KQVAALKYLQSIKNKRYGGPSSGAPPPS [Agonist P259]”, the “Rat Serum Stability (estimated purity in % after 18 hours)” value in data set [1] was 17.65%. Also, the IC50 at human VPAC1 was 3460 nM; on human VPAC2 [3] it was 13.2 nM; at human PAC1 it was more than 3000 nM.
“Hexanoyl-HSDAVFTDNYTRL[Aib]KQVAAVKYLQSIKNKRYGGPSSGAPPPS [Agonist P269]”: the “Rat Serum Stability (estimated purity in % after 18 hours)” value in data set [1] was 23.85%. In addition, the IC50 was more than 3000 nM at human VPAC1, 10.1 nM on human VPAC2 [3] and more than 25000 nM on human PAC1.
With “Hexanoyl-HSDAVFTDNYTRL[Aib]KQVAA[Aib]KYLQSIKNKRYGGPSSGAPPPS [Agonist P242]”, the “Rat Serum Stability (Estimated purity in % after 72 hours)” value in data set [1] is given as 3.8%. The “Rat Serum Stability (estimated purity in % after 18 hours)” value in data set [1] is recorded as 40.28%. Moreover, the IC50 is more than 3000 nM on human VPAC1, 6.78 nM at human VPAC2 [3] and more than 25000 nM at human PAC1.
Turning to “Hexanoyl-HSDAVFTYNYTRLRKQVAAKKYLQSIKNKRYGGPSSGAPPPS [Agonist P163]”, the “Rat Serum Stability (estimated purity in % after 18 hours)” value in data set [1] was less than 1.25%. Also, the IC50 stood at 35.7 nM at human VPAC1, 2 nM at human VPAC2 [3] and 238 nM at human PAC1.
